target: T1, prostanoid EP3 receptors (Homo sapiens, UniProt P43115); experiment: binding on prostanoid EP3 receptors (method of Abramovitz et al.); settings: read-out: Activity (EP3 receptor binding IC50)
T1 sequence (P43115 1-365 isoform P43115-3): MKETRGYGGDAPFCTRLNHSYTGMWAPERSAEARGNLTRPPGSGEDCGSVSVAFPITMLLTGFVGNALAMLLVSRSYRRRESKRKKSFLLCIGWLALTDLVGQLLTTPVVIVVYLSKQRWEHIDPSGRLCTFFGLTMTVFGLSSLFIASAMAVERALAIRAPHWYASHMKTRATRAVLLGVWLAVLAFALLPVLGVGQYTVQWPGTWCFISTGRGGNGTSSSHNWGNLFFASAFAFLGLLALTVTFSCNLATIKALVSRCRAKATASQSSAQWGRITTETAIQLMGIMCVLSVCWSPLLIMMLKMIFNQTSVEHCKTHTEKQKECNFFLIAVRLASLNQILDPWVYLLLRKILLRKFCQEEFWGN
Description: The compounds of the invention may be assayed for their binding on prostanoid EP3 receptors according to the method of Abramovitz et al. [Bioch. Biophys. Actas 1473, 285-293 (2000)]. All of the examples in the tables below have been synthesized, characterized and tested for EP3 receptor binding.
The compounds of the invention were assayed for their binding on prostanoid EP3 receptors according to the method of Abramovitz et al. [Bioch. Biophys. Acta, 1473, 285-293 (2000)]. […] Compounds with IC50<1 μM are shown as +++; compounds with IC50<1-10 μM are shown as ++; and compounds with IC50>10 μM are shown as +.

| SMILES | IC50 [nM] |
| --- | --- |
| Cc1cn(Cc2ccc3ccccc3c2)c2c(-c3cc(NS(=O)(=O)c4ccc(Cl)c(Cl)c4)no3)cc(F)cc12 [Compound B40, 3,4-Dichloro-N-[5-(5-fluoro-3-methyl-1-naphthalen-2-ylmethyl-1H-indol-7-yl)-isoxazol-3-yl]-benzenesulfonamide] | < 1000 |
| Cc1cn(Cc2ccc(Cl)cc2Cl)c2c(-c3nnc(NC(=O)c4ccco4)o3)cc(F)cc12 [Compound B30, Furan-2-carboxylic acid {5-[1-(2,4-dichloro-benzyl)-5-fluoro-3-methyl-1H-indol-7-yl]-[1,3,4]oxadiazol-2-yl}-amide] | < 1000 |
| Cc1cn(Cc2ccc3ccccc3c2)c2c(-c3cc(NS(=O)(=O)c4cc(Cl)c(Cl)s4)no3)cc(F)cc12 [Compound B41] | < 1000 |
| COc1cccc(CN2C(=O)CC3(C)CCCC(c4csc(NS(=O)(=O)c5ccc(F)c(F)c5)n4)=C23)c1 (centres unmarked) [Compound B47, 3,4-Difluoro-N-{4-[1-(3-methoxy-benzyl)-3a-methyl-2-oxo-2,3,3a,4,5,6-hexahydro-1H-indol-7-yl]-thiazol-2-yl}-benzenesulfonamide] | < 1000 |
| Cc1cn(Cc2ccc(Cl)cc2Cl)c2c(-c3nc(NS(=O)(=O)c4cc(Cl)c(Cl)s4)no3)cc(F)cc12 [Compound B42, 5-Dichloro-thiophene-2-sulfonic acid {5-[1-(2,4-dichloro-benzyl)-5-fluoro-3-methyl-1H-indol-7-yl]-[1,2,4]oxadiazol-3-yl}-amide] | < 1000 |
| Cn1cc(Cc2ccc3ccccc3c2)c2c(-c3cc(N)nn3S(=O)(=O)c3cc(Cl)c(Cl)s3)cccc21 [Compound B02, 1-(4,5-Dichloro-thiophene-2-sulfonyl)-5-(1-methyl-3-naphthalen-2-ylmethyl-1H-indol-4-yl)-1H-pyrazol-3-ylamine] | 1000 to 10000 |
| Cc1cn(Cc2ccc(Cl)cc2Cl)c2c(-c3nnc(NC(=O)c4ccc(Cl)cc4Cl)o3)cc(F)cc12 [Compound B28, 2,4-Dichloro-N-{5-[1-(2,4-dichloro-benzyl)-5-fluoro-3-methyl-1H-indol-7-yl]-[1,3,4]oxadiazol-2-yl}-benzamide] | 1000 to 10000 |
| Cc1cn(Cc2ccc3ccccc3c2)c2c(-c3cc(NS(=O)(=O)c4ccc(F)c(F)c4)no3)cc(F)cc12 [Compound B38, 3,4-Difluoro-N-[5-(5-fluoro-3-methyl-1-naphthalen-2-ylmethyl-1H-indol-7-yl)-isoxazol-3-yl]-benzenesulfonamide] | < 1000 |
| Cn1cc(-c2cc(NS(=O)(=O)c3ccc(F)c(F)c3)no2)c2c(Oc3ccc4ccccc4c3)cccc21 [Compound B45, 3,4-Difluoro-N-{5-[1-methyl-4-(naphthalen-2-yloxy)-1H-indol-3-yl]-isoxazol-3-yl}-benzenesulfonamide] | < 1000 |
| Cc1cn(Cc2ccc(F)c(F)c2)c2c(-c3cc(NS(=O)(=O)c4cc(Cl)c(Cl)s4)n(C)n3)cc(F)cc12 [Compound B15, 4,5-Dichloro-thiophene-2-sulfonic acid {5-[1-(3,4-difluoro-benzyl)-5-fluoro-3-methyl-1H-indol-7-yl]-2-methyl-2H-pyrazol-3-yl}-amide] | 1000 to 10000 |
| Cc1cn(Cc2ccc(Cl)cc2Cl)c2c(-c3nnc(NC(=O)c4ccc(F)cc4F)o3)cc(F)cc12 [Compound B27, N-{5-[1-(2,4-Dichloro-benzyl)-5-fluoro-3-methyl-1H-indol-7-yl]-[1,3,4]oxadiazol-2-yl}-2,4-difluoro-benzamide] | 1000 to 10000 |
| Cc1cn(Cc2ccc(Cl)cc2Cl)c2c(-c3nnc(NC(=O)c4ccc5c(c4)OC(F)(F)O5)o3)cc(F)cc12 [Compound B29, 2,2-Difluoro-benzo[1,3]dioxole-5-carboxylic acid {5-[1-(2,4-dichloro-benzyl)-5-fluoro-3-methyl-1H-indol-7-yl]-[1,3,4]oxadiazol-2-yl}-amide] | < 1000 |
| Cn1cc(-c2csc(NS(=O)(=O)c3cc(Cl)c(Cl)s3)n2)c2c(Oc3ccc4ccccc4c3)cccc21 [Compound B43, 4,5-Dichloro-thiophene-2-sulfonic acid {4-[1-methyl-4-(naphthalen-2-yloxy)-1H-indol-3-yl]-thiazol-2-yl}-amide] | 1000 to 10000 |
| Cc1cn(Cc2ccc(Cl)cc2Cl)c2c(-c3nnc(NS(=O)(=O)c4ccc(F)c(F)c4)o3)cc(F)cc12 [Compound B19, N-{5-[1-(2,4-Dichloro-benzyl)-5-fluoro-3-methyl-1H-indol-7-yl]-[1,3,4]oxadiazol-2-yl}-3,4-difluoro-benzenesulfonamide] | < 1000 |
| Cc1cn(Cc2ccc(Cl)cc2Cl)c2c(-c3cc(NS(=O)(=O)c4cc(F)c(F)cc4F)no3)cc(F)cc12 [Compound B36, N-{5-[1-(2,4-Dichloro-benzyl)-5-fluoro-3-methyl-1H-indol-7-yl]-isoxazol-3-yl}-2,4,5-trifluoro-benzenesulfonamide] | < 1000 |
| Cn1cc(-c2csc(NS(=O)(=O)c3ccc(F)c(F)c3)n2)c2c(Oc3ccc4ccccc4c3)cccc21 [Compound B44, 3,4-Difluoro-N-{4-[1-methyl-4-(naphthalen-2-yloxy)-1H-indol-3-yl]-thiazol-2-yl}-benzenesulfonamide] | 1000 to 10000 |
| Cc1cn(Cc2ccc(Cl)cc2Cl)c2c(-c3cc(NS(=O)(=O)c4ccc(F)c(F)c4)no3)cc(F)cc12 [Compound B35, N-{5-[1-(2,4-Dichloro-benzyl)-5-fluoro-3-methyl-1H-indol-7-yl]-isoxazo 1-3-yl}-3,4-difluoro-benzenesulfonamide] | < 1000 |
| Cc1cn(Cc2ccc(F)c(F)c2)c2c(-c3cc(NS(=O)(=O)c4ccc(F)c(F)c4)no3)cc(F)cc12 [Compound B32, N-{5-[1-(3,4-Difluoro-benzyl)-5-fluoro-3-methyl-1H-indol-7-yl]-isoxazol-3-yl}-3,4-difluoro-benzenesulfonamide] | < 1000 |
| Cn1cc(Cc2ccc3ccccc3c2)c2c(-c3ccc(NS(C)(=O)=O)cc3)cccc21 [Compound B05, N-[4-(1-Methyl-3-naphthalen-2-ylmethyl-1H-indol-4-yl)-phenyl]-methanesulfonamide] | 1000 to 10000 |
| Cn1cc(Cc2ccc3ccccc3c2)c2c(-c3ccc(NS(=O)(=O)c4cc(Cl)c(Cl)s4)cc3)cccc21 [Compound B04, 4,5-Dichloro-thiophene-2-sulfonic acid[4-(1-methyl-3-naphthalen-2-ylmethyl-1H-indol-4-yl)-phenyl]-amide] | 1000 to 10000 |
| Cc1cn(Cc2ccc(F)c(F)c2)c2c(-c3cc(NS(C)(=O)=O)no3)cc(F)cc12 [Compound B16, N-{5-[1-(3,4-Difluoro-benzyl)-5-fluoro-3-methyl-1H-indol-7-yl]-isoxazol-3-yl}-methanesulfonamide] | > 10000 |
| Cc1cn(Cc2ccc(F)c(F)c2)c2c(-c3ccc(NS(C)(=O)=O)cc3)cc(F)cc12 [Compound B06, N-{4-[1-(3,4-Difluoro-benzyl)-5-fluoro-3-methyl-1H-indol-7-yl]-phenyl}-methanesulfonamide] | 1000 to 10000 |
| Cc1cn(Cc2ccc(Cl)cc2Cl)c2c(-c3cc(NS(=O)(=O)c4cc(Cl)c(Cl)s4)no3)cc(F)cc12 [Compound B34, 4,5-Dichloro-thiophene-2-sulfonic acid {5-[1-(2,4-dichloro-benzyl)-5-fluoro-3-methyl-1H-indol-7-yl]-isoxazol-3-yl}-amide] | < 1000 |
| Cc1cn(Cc2ccc(Cl)cc2Cl)c2c(-c3nnc(NS(=O)(=O)c4cc(F)c(F)cc4F)o3)cc(F)cc12 [Compound B12, N-{5-[1-(2,4-Dichloro-benzyl)-5-fluoro-3-methyl-1H-indol-7-yl]-[1,3,4]oxadiazol-2-yl}-2,4,5-trifluoro-benzenesulfonamide] | < 1000 |
| Cc1cn(Cc2ccc(F)c(F)c2)c2c(-c3cc(NS(=O)(=O)c4cc(F)c(F)cc4F)no3)cc(F)cc12 [Compound B33, N-{5-[1-(3,4-Difluoro-benzyl)-5-fluoro-3-methyl-1H-indol-7-yl]-isoxazol-3-yl}-2,4,5-trifluoro-benzenesulfonamide] | < 1000 |
| Cn1cc(Cc2ccc3ccccc3c2)c2c(-c3ccc(NC(=O)C(F)(F)F)cc3)cccc21 [Compound B18, 2,2,2-Trifluoro-N-[4-(1-methyl-3-naphthalen-2-ylmethyl-1H-indol-4-yl)-phenyl]-acetamide] | < 1000 |
| Cc1cn(Cc2ccc(Cl)cc2Cl)c2c(-c3nnc(NS(C)(=O)=O)o3)cc(F)cc12 [Compound B11, N-{5-[1-(2,4-Dichloro-benzyl)-5-fluoro-3-methyl-1H-indol-7-yl]-[1,3,4]oxadiazol-2-yl}-methanesulfonamide] | 1000 to 10000 |
| Cc1cn(Cc2ccc(Cl)cc2Cl)c2c(-c3nnc(NC(=O)c4ccno4)o3)cc(F)cc12 [Compound B24, Isoxazole-5-carboxylic acid {5-[1-(2,4-dichloro-benzyl)-5-fluoro-3-methyl-1H-indol-7-yl]-[1,3,4]oxadiazol-2-yl}-amide] | 1000 to 10000 |
| Cc1cn(Cc2ccc(Cl)cc2Cl)c2c(-c3ccc(NS(=O)(=O)c4cc(Cl)c(Cl)s4)nc3)cc(F)cc12 [Compound B46, 4,5-Dichloro-thiophene-2-sulfonic acid {5-[1-(2,4-dichloro-benzyl)-5-fluoro-3-methyl-1H-indol-7-yl]-pyridin-2-yl}-amide] | < 1000 |

Source: US20060142348A1, “Aryl sulfonamide peri-substituted bicyclics for occlusive artery disease” (deCODE Chemistry, Inc., priority 2004, published 2006)
